Test results published in patent publication US11000033B2, “Ketone or oxime compound, and herbicide” (NISSAN CHEMICAL CORPORATION, priority 2014, dated 2021).

How the values were obtained:
Type in all cases: in vivo
Scirpus juncoides = experiment: Test Example 2: herbicidal activity, application during weed generation in submerged conditions (symbol B); conditions: Table 23; application herbicide amount 320 g/ha; grade 0-5 by criteria of Test Example 1
In short: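 Flooded-soil post-emergence test: emulsion of compound, water-diluted to target rate, applied to paddy water surface at 1–2 leaf stage of mixed-sown weeds (alluvial soil, 4 cm water, 25–30° C. greenhouse); visual rating 3 weeks after application.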

[1] = test system: Echinochloa crus-galli var. crus-galli; experiment: Test Example 3: herbicidal effect by foliage application, Wagner pot (symbol H); conditions: application herbicide amount 320 g/ha
In short: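 Rating at 3 weeks post-spray, by defined criteria. Treatment: emulsion diluted with water to a predetermined amount, applied evenly to foliage of 14-day-old plants raised in alluvial soil flooded 0.1–0.5 cm deep at 25–30 °C, rice co-sown.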

Apera spica-venti [2] = experiment: Test Example 4: herbicidal effect by soil treatment (symbol L); conditions: application herbicide amount 320 g/ha
In short: (§1)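 Seeds were sown in sterilized diluvial soil, covered with about 1.5 cm of soil, and the soil surface was sprayed with a water-diluted emulsion of the compound at a predetermined rate. Plants grew in a greenhouse at 25° C. to 30° C.; effects were scored visually 3 weeks after application.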

Stellaria media = experiment: Test Example 4: herbicidal effect by soil treatment (symbol P); conditions: application herbicide amount 320 g/ha
In short: as §1

Galium spurium = experiment: Test Example 4: herbicidal effect by soil treatment (symbol Q); conditions: application herbicide amount 320 g/ha
In short: as §1

Veronica persica = experiment: Test Example 4: herbicidal effect by soil treatment (symbol R); conditions: application herbicide amount 320 g/ha
In short: as §1

corn = experiment: Test Example 4: effect on crop by soil treatment (symbol c); conditions: application herbicide amount 320 g/ha
In short: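 Sterilized diluvial soil, spot sowing, ~1.5 cm soil cover; greenhouse 25–30° C.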

soybean = experiment: Test Example 4: effect on crop by soil treatment (symbol d); conditions: application herbicide amount 320 g/ha
In short: (§2)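 Diluvial soil (sterilized) in boxes; seeds placed spot-wise alongside weed species; ~1.5 cm covering soil. Greenhouse, 25–30° C.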

wheat = experiment: Test Example 4: effect on crop by soil treatment (symbol e); conditions: application herbicide amount 320 g/ha
In short: as §2

[3] = test system: Echinochloa crus-galli var. crus-galli; experiment: Test Example 5: herbicidal effect by foliage application, plastic box (symbol H); conditions: 320 g/ha, 3 weeks after application
In short: (§3)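 Post-emergence spray; diluvial soil (sterilized), ~1.5 cm seed cover; greenhouse 25–30° C; 14-day-old plants; water-diluted emulsion at predetermined dose; visual score at 3 wk post-treatment.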

Avena fatua = experiment: Test Example 5: herbicidal effect by foliage application, plastic box (symbol I); conditions: 320 g/ha, 3 weeks after application
In short: as §3

Lolium multiflorum Lam. = experiment: Test Example 5: herbicidal effect by foliage application, plastic box (symbol K); conditions: 320 g/ha, 3 weeks after application
In short: as §3

Apera spica-venti [4] = experiment: Test Example 5: herbicidal effect by foliage application, plastic box (symbol L); conditions: 320 g/ha, 3 weeks after application
In short: as §3

Amaranthus retroflexus = experiment: Test Example 5: herbicidal effect by foliage application, plastic box (symbol N); conditions: 320 g/ha, 3 weeks after application
In short: as §3

beet = experiment: Test Example 5: effect on crop by foliage application, plastic box (symbol f); conditions: 320 g/ha, 3 weeks after application
In short: (§4)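 Diluvial soil, sterilized and boxed (21 × 13 × 7 cm), received spot-sown seed covered by about 1.5 cm soil; plants were then greenhouse-grown at 25–30° C.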

rapeseed = experiment: Test Example 5: effect on crop by foliage application, plastic box (symbol g); conditions: 320 g/ha, 3 weeks after application
In short: as §4

SMILES | Herbicidal effect grade, B: Scirpus juncoides (Scirpus juncoides) | herbicidal effect on H (Echinochloa crus-galli var. crus-galli), grade 0-5 [1] | L: Apera spica-venti, herbicidal effect grade (Apera spica-venti [2]) | P: Stellaria media, herbicidal effect grade (Stellaria media) | Q: Galium spurium, herbicidal effect grade (Galium spurium) | R: Veronica persica, herbicidal effect grade (Veronica persica) | c: corn, effect on crop grade (corn) | d: soybean, effect on crop grade (soybean) | e: wheat, effect on crop grade (wheat) | H: Echinochloa crus-galli var. crus-galli, herbicidal effect grade [3] | I: Avena fatua, herbicidal effect grade (Avena fatua) | K: Lolium multiflorum Lam., herbicidal effect grade (Lolium multiflorum Lam.) | L: Apera spica-venti, herbicidal effect grade (Apera spica-venti [4]) | N: Amaranthus retroflexus, herbicidal effect grade (Amaranthus retroflexus) | f: beet, effect on crop grade (beet) | g: rapeseed, effect on crop grade (rapeseed)
CON=C(C)CC1CC(O)=C(c2c(C)cc(-c3ccc(C(F)(F)F)cc3)cc2C)C1=O (mixture of isomers) [6-016] | 0 (Herbicidal ratio of 5% or lower (almost no effect)) | 5 (Herbicidal ratio of 90% or more (almost completely withered)) | 5 (Herbicidal ratio of 90% or more (almost completely withered)) | 0 (Herbicidal ratio of 5% or lower (almost no effect)) | 0 (Herbicidal ratio of 5% or lower (almost no effect)) | 0 (Herbicidal ratio of 5% or lower (almost no effect)) | 0 (Herbicidal ratio of 5% or lower (almost no effect)) | 0 (Herbicidal ratio of 5% or lower (almost no effect)) | 0 (Herbicidal ratio of 5% or lower (almost no effect)) | 5 (Herbicidal ratio of 90% or more (almost completely withered)) | 4 (Herbicidal ratio of 70% or higher and lower than 90%) | 5 (Herbicidal ratio of 90% or more (almost completely withered)) | 5 (Herbicidal ratio of 90% or more (almost completely withered)) | 0 (Herbicidal ratio of 5% or lower (almost no effect)) | 0 (Herbicidal ratio of 5% or lower (almost no effect)) | 1 (Herbicidal ratio of 5% or higher and lower than 20%)
CON=C(C)CC1CC(O)=C(c2c(C)cc(-c3ccc(OC)cc3)cc2C)C1=O (mixture of isomers) [6-017] | 3 (Herbicidal ratio of 40% or higher and lower than 70%) | 5 (Herbicidal ratio of 90% or more (almost completely withered)) | 5 (Herbicidal ratio of 90% or more (almost completely withered)) | 0 (Herbicidal ratio of 5% or lower (almost no effect)) | 0 (Herbicidal ratio of 5% or lower (almost no effect)) | 0 (Herbicidal ratio of 5% or lower (almost no effect)) | 0 (Herbicidal ratio of 5% or lower (almost no effect)) | 0 (Herbicidal ratio of 5% or lower (almost no effect)) | 0 (Herbicidal ratio of 5% or lower (almost no effect)) | 5 (Herbicidal ratio of 90% or more (almost completely withered)) | 5 (Herbicidal ratio of 90% or more (almost completely withered)) | 5 (Herbicidal ratio of 90% or more (almost completely withered)) | 5 (Herbicidal ratio of 90% or more (almost completely withered)) | 0 (Herbicidal ratio of 5% or lower (almost no effect)) | 0 (Herbicidal ratio of 5% or lower (almost no effect)) | 3 (Herbicidal ratio of 40% or higher and lower than 70%)
CON=C(C)CC1CC(O)=C(c2c(C)cc(-c3ccc(C)cc3)cc2C)C1=O (mixture of isomers) [6-018] | 4 (Herbicidal ratio of 70% or higher and lower than 90%) | 5 (Herbicidal ratio of 90% or more (almost completely withered)) | 5 (Herbicidal ratio of 90% or more (almost completely withered)) | 0 (Herbicidal ratio of 5% or lower (almost no effect)) | 0 (Herbicidal ratio of 5% or lower (almost no effect)) | 0 (Herbicidal ratio of 5% or lower (almost no effect)) | 0 (Herbicidal ratio of 5% or lower (almost no effect)) | 0 (Herbicidal ratio of 5% or lower (almost no effect)) | 0 (Herbicidal ratio of 5% or lower (almost no effect)) | 5 (Herbicidal ratio of 90% or more (almost completely withered)) | 4 (Herbicidal ratio of 70% or higher and lower than 90%) | 5 (Herbicidal ratio of 90% or more (almost completely withered)) | 5 (Herbicidal ratio of 90% or more (almost completely withered)) | 0 (Herbicidal ratio of 5% or lower (almost no effect)) | 1 (Herbicidal ratio of 5% or higher and lower than 20%) | 3 (Herbicidal ratio of 40% or higher and lower than 70%)
CON=C(C)CC1CC(O)=C(c2c(C)cc(C#CCO)cc2C)C1=O (mixture of isomers) [6-025] | 0 (Herbicidal ratio of 5% or lower (almost no effect)) | 5 (Herbicidal ratio of 90% or more (almost completely withered)) | 4 (Herbicidal ratio of 70% or higher and lower than 90%) | 0 (Herbicidal ratio of 5% or lower (almost no effect)) | 0 (Herbicidal ratio of 5% or lower (almost no effect)) | 0 (Herbicidal ratio of 5% or lower (almost no effect)) | 0 (Herbicidal ratio of 5% or lower (almost no effect)) | 0 (Herbicidal ratio of 5% or lower (almost no effect)) | 0 (Herbicidal ratio of 5% or lower (almost no effect)) | 5 (Herbicidal ratio of 90% or more (almost completely withered)) | 5 (Herbicidal ratio of 90% or more (almost completely withered)) | 5 (Herbicidal ratio of 90% or more (almost completely withered)) | 5 (Herbicidal ratio of 90% or more (almost completely withered)) | 0 (Herbicidal ratio of 5% or lower (almost no effect)) | 0 (Herbicidal ratio of 5% or lower (almost no effect)) | 3 (Herbicidal ratio of 40% or higher and lower than 70%)
CON=C(C)CC1CC(O)=C(c2c(C)cc(-c3ccc(Cl)nc3)cc2C)C1=O (mixture of isomers) [6-035] | 4 (Herbicidal ratio of 70% or higher and lower than 90%) | 5 (Herbicidal ratio of 90% or more (almost completely withered)) | 5 (Herbicidal ratio of 90% or more (almost completely withered)) | 3 (Herbicidal ratio of 40% or higher and lower than 70%) | 0 (Herbicidal ratio of 5% or lower (almost no effect)) | 3 (Herbicidal ratio of 40% or higher and lower than 70%) | 2 (Herbicidal ratio of 20% or higher and lower than 40%) | 0 (Herbicidal ratio of 5% or lower (almost no effect)) | 0 (Herbicidal ratio of 5% or lower (almost no effect)) | 5 (Herbicidal ratio of 90% or more (almost completely withered)) | 5 (Herbicidal ratio of 90% or more (almost completely withered)) | 5 (Herbicidal ratio of 90% or more (almost completely withered)) | 5 (Herbicidal ratio of 90% or more (almost completely withered)) | 5 (Herbicidal ratio of 90% or more (almost completely withered)) | 0 (Herbicidal ratio of 5% or lower (almost no effect)) | 4 (Herbicidal ratio of 70% or higher and lower than 90%)
